Experimental data reported in US20060111395A1, “Aryl-and heteroaryl-substituted tetrahydroisoquinolines and use thereof to block reuptake of norepinephrine, dopamine and serotonin” (AMR Technology, Inc., priority 2004, published 2006).

Experiments:
[1] = cited from earlier work
[2] = test system: dopamine transporter protein over the norepinephrine transporter protein; details: selectivity for DAT over NET; cited from earlier work

CN1Cc2cc(-c3ccoc3)ccc2C(c2ccccc2)C1 (stereo not drawn)
melting point: 188 to 189 °C (dec.)

CN1Cc2c(N)cccc2C(c2ccccc2)C1 (stereo not drawn) [Nomofensine®]
side effect of long term administration [1]: fatal immune hemolytic anemia

COC(=O)C(c1ccccc1)C1CCCCN1 (stereo not drawn) [Methylphenidate]
DAT/NET Ki ratio [2]: 0.1
